Reference: patent US20030134335A1, “Method for reducing the immunogenicity of heterologous proteins by elimination of t-cell epitopes” (priority 1999, published 2003)

Key:
PBMC = assay: Proliferation (stimulation index) of SakSTAR-myc-primed PBMC re-stimulated with antigen/peptides; assay type: cell-based, human; details: for cellular immune response (stimulation index) of SakSTAR-myc primed PBMC: PBMC from 10 region(71-87)-immunoreactive donors, value exceeding 3 positive
From the text: However, the vast majority of humans does also recognize additional immunogenic SakSTAR regions (untouched in these SakSTAR-variants), which would invalidate such an experiment. Therefore, 25 other healthy donors were screened for SakSTAR immunoreactivity. PBMC were thawed, washed four times in 1% human serum albumin, and cultured at 1.8×10^6 cells/ml in RPMI 1640 supplemented with 5%. human serum (Biowitthaker, Walkersville, Md.) and gentamycin with or without SakSTAR-myc for 10 days in a humidified CO2 incubator. The non-adherent cells were harvested and restimulated with no antigen, SakSTAR-myc or different peptides. For antigen presenting cells, irradiated autologous PBMC were T-cell depleted, using CD3-M450 Dynabeads (Dynal, Compiégne, France) according manufacturer procedures (FACS analysis indicated >95% non-T-cells). The plates were incubated at 37° C. under humidified atmosphere containing 5% CO2 for 5 days, and pulsed with BrdU for the last 22 to 24 hours.
Subsequently, the cells were harvested and analyzed for their BrdU content (BrdU ELISA, Boehringer Mannheim, Mannheim, Germany). A stimulation index was calculated, by dividing the OD obtained from the PBMC in response to an antigen/peptide by that of the spontaneous proliferation (no antigen) control. A value exceeding 3 was considered positive, indicating the proliferation of specific T-cells to that particular antigen/peptide.

[1] = tested on: SakSTAR specific T-cell clones (CD3+, CD4+); assay: Functional T-cell assay: proliferation (BrdU) of SakSTAR-specific T-cell clones with APC and antigen/peptide; assay type: cell-based, human; details: for immunogenic / functional T-cell epitope by T-cell clone specificity: over 100 SakSTAR specific T-cell clones, SakSTAR-derived peptides; for proliferation of region(71-87)-specific T-cell clones: positive if at least three times the background
From the text: For the cloning of SakSTAR-specific T-cell clones, approximately 15×10^6 PBMC from each donor were stimulated with an optimal concentration of SakSTAR for 7-9 days. The visible T-cell clones were harvested under the microscope, and individually re-stimulated in a 96-well flat-bottom plate with autologous PBMC as antigen presenting cells (APC). These wells were supplemented on day 1 with 20U/ml recombinant human interleukin-2 (IL-2) (Boehringer Mannheim, Mannheim, Germany) and allowed to grow for 8-11 days. Re-stimulation was repeated every 8-11 days under the same conditions. After 3 to 6 passages, autologous PBMC were replaced by autologous Epstein Barr Virus (EBV)-immortalized B-cell lines as antigen presenting cells.
To identify immunogenic regions on the SakSTAR molecule, the isolated T-cell clones were tested for their specificity using SakSTAR-derived peptides. In total 25 peptides 17 residues in length, each overlapping 12 residues were synthesized using a fluorenylmethoxy-carbonyl-protected amino acid coupling procedure (Hiemstra et al., 1997). Each individual T-cell clone was tested for its specificity by co-culturing T-cells, Mitomycin C-treated autologous EBV-B-cells and antigen or the appropriate peptide for 4 days. Subsequently, the T-cell clones were pulsed for 24 hours with BrdU, harvested and analyzed for their BrdU content.

| Sequence | cellular immune response (stimulation index) of SakSTAR-myc primed PBMC (PBMC) | immunogenic / functional T-cell epitope by T-cell clone specificity [1] | further results |
| --- | --- | --- | --- |
| TAYAAFAVVALAPSAKI [quintuple (K74A, E75A, R77A, E80A, D82A), multiple mutation(71-87) peptide] | none of the tested donors showed a positive cellular immune response |  |  |
| TYYDKNKKKEE [90-TYYDKNKKKEE-100] |  | no T-cell clones were isolated |  |
| TAYKEFAVVALAPSAKI [triple (R77A, E80A, D82A), multiple mutation(71-87) peptide] | none of the tested donors showed a positive cellular immune response |  |  |
| AYKEFRVVELD [S1, 11-mer peptide, SakSTAR residues 72-82] |  | functional T-cell epitopes | proliferation of region(71-87)-specific T-cell clones [1]: clones Tc-1 to Tc-6 proliferated |
| EFRVVELDPSA [S2, 11-mer peptide, SakSTAR residues 75-85] |  | functional T-cell epitopes | proliferation of region(71-87)-specific T-cell clones [1]: Tc-7 to Tc-10 recognize the S2 peptide |
| HYVEFPIKPGT [43-HYVEFPIKPGT-53] |  | no T-cell clones were isolated |  |
| TAYQEFSVVSLSPSAKI [quadruple (K74Q, R77S, E80S, D82S), multiple mutation(71-87) peptide] | none of the tested donors showed a positive cellular immune response |  |  |
| TAYKEFAVVALDPSAKI [double (R77A, E80A), multiple mutation(71-87) peptide] | none of the tested donors showed a positive cellular immune response |  |  |
| TAYKEFRVVELDPSAKI [71-TAYKEFRVVELDPSAKI-87, wild type SakSTAR(71-87) 17-mer peptide] |  |  | donors from which isolated T-cell clones were stimulated by the peptide ([1]; T-cell clones from 10 healthy donors): 9 of 10; SakSTAR positive donors with a cellular immune response to the peptide (PBMC; 20 identified SakSTAR positive donors, stimulation index exceeding 3 positive): 80% |
